Measured values taken from patent publication US11147883B2, “Targeted delivery of drugs, therapeutic nucleic acids and functional nucleic acids to mammalian cells via intact killed bacterial cells” (EnGeneIC Molecular Delivery Pty Ltd, priority 2006, dated 2021).

Tested on: human breast cancer cells MDA-MB-468 xenograft
Assay: Human breast cancer MDA-MB-468 xenograft in nude mice, i.v. treatment, tumor volume
Assay type: in vivo, Balb/c nu/nu mice
Conditions: i.v. doses on days 21, 28 and 34, 1×10^8 bacteria/dose or free Doxorubicin 7 mg/kg
Protocol: An anti-EGFR monoclonal antibody was selected because the xenografted cells were human breast cancer cells MDA-MB-468 that are known to overexpress the EGF receptor on the cell surface.
Human breast adenocarcinoma cells (MDA-MB-468, ATCC; human mammary epithelial cells; non-phagocytic) were grown in tissue culture to full confluency in T-75 flasks in RPMI 1640 medium supplemented with 5% Bovine Calf Serum (GIBCO-BRL Life Technologies, Invitrogen Corporation, Carlsbad, Calif., USA) and glutamine (Invitrogen) in a humidified atmosphere of 95% air and 5% CO2 at 37° C. 1×10^6 cells in 50 uL serum-free media together with 50 uL growth factor reduced matrigel (BD Biosciences, Franklin Lakes, N.J., USA) were injected subcutaneously between the shoulder blades of each mouse using a 23-gauge needle. The tumors were measured twice a week using an electronic digital caliper (Mitutoyo, Japan, precision to 0.001) and mean tumor volume was calculated using the formula, length (mm)×width^2 (mm)×0.5=volume (mm^3). 16 days post-implantation, the tumors reached volumes between 40 mm^3 and 70 mm^3, and mice were randomized to four different groups of five per group.
The experiment was designed as follows. Group 1 (control) received an i.v. dose of 100 μl of sterile physiological saline. Group 2 (control) received an i.v. dose of free Doxorubicin (7 mg/kg of mouse body weight). […]

COc1cccc2c1C(=O)c1c(O)c3c(c(O)c1C2=O)C[C@@](O)(C(=O)CO)C[C@@H]3O[C@H]1C[C@H](N)[C@H](O)[C@H](C)O1 [free doxorubicin, Doxorubicin]
anti-tumor effect (tumor volume, FIG. 1): no anti-tumor effects
